The subject of assay [1] is Hdh-sNPFR. Briefly: CRE-Luc reporter activation in Hdh-sNPFR-transfected HEK293 cells. In kind it is cell-based, Haliotis discus hannai. To be noted: peptide 10^−6 M, 6 h, no forskolin, n = 3. The procedure: (§1) HEK293 cells were grown in monolayer culture in Dulbecco’s modified Eagle medium (Gibco, Loughborough, UK) with 10% fetal bovine serum (HyClone, GE Healthcare, Chicago, IL, USA) and 1% penicillin/streptomycin (Invitrogen, Carlsbad, CA, USA) at 37°C, 5% CO2. HEK293 cells were seeded in 24-well plates and the transfection was performed using a formulated polyethylenimine solution (Sigma-Aldrich, St. Louis, MO, USA) as previously described. […] The cells were harvested with a cell lysis buffer (Promega, Madison, WI, USA) and luciferase activities were assayed using a microplate luminometer (Berthold, Bad Wildbad, Germany) and normalized by β-galactosidase values detected on a microplate reader (Tecan, Männedorf, Switzerland) at 405 nm.
(§2) Fig 5 Effect of LFRFa peptides on luciferase reporter activities in Hdh-sNPFR-expressing HEK293 cells. […] Intracellular cAMP accumulation was measured by CRE-Luc reporter activities in Hdh-sNPFR- or maternal plasmid pcDNA3-transfected HEK293 cells. The relative activities were determined in response to 10^−5 M of FKN and 10^−6 M of peptide as indicated. […]

The subject of assay [2] is Hdh-sNPFR. Briefly: SRE-Luc reporter activation in Hdh-sNPFR-transfected HEK293 cells. The assay is classed as cell-based, Haliotis discus hannai. To be noted: peptide 10^−6 M, 6 h, n = 3. As for the experimental part:
as §1, §2

Assay [3] has as its system Hdh-sNPFR. Briefly: Internalization of HA-tagged Hdh-sNPFR in HEK293 cells (immunocytochemistry, confocal microscopy). In kind it is cell-based, Haliotis discus hannai. To be noted: HEK293 cells with HA-tagged Hdh-sNPFR; peptide 10^−6 M; 5 and 30 min. The procedure: To detect Hdh-sNPFR expression, HEK293 cells were seeded on poly-D-lysine hydrobromide (Sigma-Aldrich)-coated coverslips in 24-well plates. The Hdh-sNPFR expression plasmid was transfected into HEK293 cells as described above. At approximately 30 h post-transfection, the cells were treated with LFRFa peptides and NPF for 5 min and 30 min, respectively. The cells were fixed with 4% paraformaldehyde for 10 min, followed by treatment with 1% bovine serum albumin in phosphate-buffered saline with 0.1% Tween 20 (PBST) for 30 min at room temperature to block non-specific binding. The HEK293 cells were treated with a monoclonal HA primary antibody (1:5000 dilution; H9658, Sigma-Aldrich) in PBST at 4°C for 16 h. After washing with PBST three times for 10 min each, the cells were treated with a secondary antibody [anti-mouse IgG (H+L), F(ab’)2Fragment (AlexaFluor 488 Conjugate), 1:2000 dilution; Cell Signaling, Danvers, MA, USA] in PBST at room temperature for 1 h in a light-blocked chamber. After washing with PBST three times for 10 min each, the cells were mounted with a mounting medium including DAPI (Abcam, Cambridge, UK). The expression of Hdh-sNPFR was monitored with a confocal laser-scanning microscope (FV3000, Olympus, Tokyo, Japan).
Fig 7 Subcellular localization and internalization of Hdh-sNPFR. […]

The subject of the next assay is Pacific abalone. Conditions: injection of NPF peptide; earlier paper of the authors; cited from earlier work. The source says:
Along with insect sNPFs, LFRFa peptides convert feeding motor programs from ingestive to egestive, depress feeding muscle contractions in Aplysia californica, and increase rectal contractions in Sepia officinalis.

In the case of “QDAMLAPPDRPSEFRSPDQLRQYLKALNEYYAIVGRPRF-NH2 [NPF, Pacific abalone neuropeptide F, 39 amino acids, amidated, used as comparison peptide]”, the “Activation of CRE-Luc reporter” value in the assay on Hdh-sNPFR [1] was “did not activate”. The “Activation of SRE-Luc reporter” value with Hdh-sNPFR [2] is recorded as “did not activate”. Besides, the “Internalization of Hdh-sNPFR from cell membrane to cytoplasm” value in the assay with Hdh-sNPFR [3] is reported as “did not undergo redistribution from the cell surface to the cytoplasm”. Moreover, in the assay on Pacific abalone, the “Food consumption in Pacific abalone after NPF injection” value was “increased food consumption”.

The values above are taken from paper PMC9071130, “Functional analysis of LFRFamide signaling in Pacific abalone, Haliotis discus hannai” (PLoS ONE, 2022).
